Measurements reported in patent US10130590B2, “Methods of treating cancer with atovaquone-related compounds” (DANA-FARBER CANCER INSTITUTE, INC., priority 2013, dated 2018).

Experiments:
[1] = test system: JAK family members (TYK2, JAK2); assay: JAK auto-phosphorylation in cells (immunoprecipitation, Western blot); assay type: cell-based; conditions: U266 15 μM 1 hour (TYK2); HEL 20 μM 6 hours (JAK2)
Protocol: Western blotting was performed as previously described (Battle T E, Arbiser J, & Frank D A (2005) The natural product honokiol induces caspase dependent apoptosis in B-cell chronic lymphocytic leukemia (B-CLL) cells. Blood 106(2):690-697). Antibodies to phospho-MAPK (9101), total MAPK (9102), phospho-Y705 STAT3 (9131), phospho-S6 (2215), total S6 (2217), phospho-4E-BP1 (9451), total 4E-BP1 (9644), total RSK (9355), phospho-S6K (9234, 85 used at 1:5000), total S6K (2708), phospho-eIF2α (9721, used at 1:1000), total eIF2α (5324), ATF4 (11815, used at 1:1000), PDGFRβ (3169), IGF1Rβ (9750), EGFR (2232), and HER2 (2242) were from Cell Signaling Technology. Phospho-RSK antibody was from R&D (AF889). Antibodies to total STAT3 (sc-482) and gp130 (sc-656, used at 1:1000) were from Santa Cruz Biotechnology. […] Cell viability was measured as ATP-dependent luminescence by Cell Titer Glo (Promega).
To understand how atovaquone inhibits STAT3 phosphorylation, the possibility that atovaquone decreases the kinase activity of JAKs, which are responsible for STAT3 activation in the systems previously tested was considered. To assess kinase activity, the extent of kinase auto-phosphorylation, which provides a cellular readout of kinase activity, was first analyzed. […] Due to technical limitations, tyrosine phosphorylation of other JAK family members was not detected in U266 cells. […]

mTOR pathway = assay: Western blot of S6 phosphorylation in TSC2 or REDD1 knockout MEFs; assay type: cell-based, mouse; conditions: 25 μM, 2.5 hours
Protocol: Mouse embryonic fibroblasts (MEFs) were cultured in DMEM+10% FBS. TSC2-null (see, Zhang et al. J Clin Invest. 2003; 112(8):1223-1233) and REDD1-null (see, Sofer et al. Mol. Cell. Biol. July 2005 vol. 25 no. 14 5834-5845) MEFs, along with MEFs from the littermate controls, were kind gifts from Dr. John Blenis and Dr. Leif Ellisen, respectively. HEL (see, Iwama et al. Mol. Cell. Biol. June 1999 vol. 19 no. 6 3940-3950) was a kind gift of Dr. Daniel G. Tenen and grown in RPMI-1640+10% FBS. OCI-AML2 and OCI-AML3 (see, Grunberger et al. Blood Dec. 1, 2003 vol. 102 no. 12 4153-4158), and MOLM-13 (German Collection of Microorganisms and Cell Cultures (DSMZ, Braunschweig, Germany)) were kind gifts of Dr. James D. Griffin and grown in RPMI-1640+10% FBS. MM.1S (ATCC) was a kind gift of Dr. Kenneth C. Anderson and grown in RPMI-1640+10% FBS. SET2 (see, Koppikar et al. Nature 489, 155-159 (6 Sep. 2012)) was a kind gift of Dr. Ross L. Levine and grown in RPMI-1640+10% FBS. HL60 (ATCC) was a kind gift of Dr. James D. Griffin and grown in RPMI-1640+10% FBS. […] Molecular Pharmacology 78(5):903-908; and Walker S R, et al. (2009) Reciprocal effects of STAT5 and STAT3 in breast cancer. Molecular Cancer Research: MCR 7(6):966-976). Peripheral blood mononuclear cells (PBMCs) were isolated from healthy donors by Ficoll density gradient centrifugation and maintained in RPMI-1640+10% FBS. […]

O=C1C(O)=C([C@H]2CC[C@H](c3ccc(Cl)cc3)CC2)C(=O)c2ccccc21 [atovaquone, trans-2-[4-(4-chlorophenyl)cyclohexyl]-3-hydroxy-1,4-naphthalenedione]
auto-phosphorylation of JAK family members in cells [1]: inhibited the auto-phosphorylation of JAK family members
S6 phosphorylation in MEFs with knockout of TSC2 or REDD1 (mTOR pathway): no effect on S6 phosphorylation
